Measured values: US12258316B2, “Biphenyl compounds useful as muscarinic receptor antagonists” (THERAVANCE BIOPHARMA R&D IP, LLC, priority 2004, dated 2025)

What was measured:
hM3 receptor = molecular target: T1, hM3 receptor (Homo sapiens, UniProt P20309); experiment: Blockade of agonist-mediated calcium release via FLIPR assay; assay type: cell-based; conditions: CHO cells stably expressing the hM3 receptor, oxotremorine at EC90
T1 construct: expressed in transfected cells; host or cells: CHO cells
From the text: C. Blockade of Agonist-Mediated Calcium Release via FLIPR Assays
Muscarinic receptor subtypes (M1, M3 and M5 receptors), which couple to Gq proteins, activate the phospholipase C (PLC) pathway upon agonist binding to the receptor. As a result, activated PLC hydrolyzes phosphatyl inositol diphosphate (PIP2) to diacylglycerol (DAG) and phosphatidyl-1,4,5-triphosphate (IP3), which in turn generates calcium release from intracellular stores, i.e., endoplasmic and sarcoplasmic reticulum. […] This fluorescence event is measured in real time by the FLIPR, which detects the change in fluorescence from a monolayer of cells cloned with human M1 and M3, and chimpanzee M5 receptors. Antagonist potency can be determined by the ability of antagonists to inhibit agonist-mediated increases in intracellular calcium. […]
To determine antagonist potency, the dose-dependent stimulation of intracellular Ca^2+ release for oxotremorine is first determined so that antagonist potency can later be measured against oxotremorine stimulation at an EC90 concentration. […]
The parameters used for the FLIPR are: exposure length of 0.4 seconds, laser strength of 0.5 watts, excitation wavelength of 488 nm, and emission wavelength of 550 nm. Baseline is determined by measuring the change in fluorescence for 10 seconds prior to addition of agonist. […]

[1] = test system: ACh-induced bronchoconstriction; experiment: Duration of bronchoprotection in guinea pig model of acetylcholine-induced bronchoconstriction; assay type: in vivo; conditions: inhalation, 1.5 hours post-dose
Description: Determination of Duration of Bronchoprotection in Guinea Pig Model of Acetylcholine-Induced Bronchoconstriction
Groups of six male guinea pigs (Duncan-Hartley (HsdPoc:DH) Harlan, Madison, WI) weighing between 250 and 350 g were individually identified by cage cards. Throughout the study animals were allowed access to food and water ad libitum.
Test compounds were administered via inhalation over 10 minutes in a whole-body exposure dosing chamber (R&S Molds, San Carlos, CA). The dosing chambers were arranged so that an aerosol was simultaneously delivered to 6 individual chambers from a central manifold. Guinea pigs were exposed to an aerosol of a test compound or vehicle (WFI). […] This was measured gravimetrically by comparing pre- and post-nebulization weights of the filled nebulizer.
The bronchoprotective effects of test compounds administered via inhalation were evaluated using whole body plethysmography at 1.5, 24, 48 and 72 hours post-dose.
Forty-five minutes prior to the start of the pulmonary evaluation, each guinea pig was anesthetized with an intramuscular injection of ketamine (43.75 mg/kg), xylazine (3.50 mg/kg) and acepromazine (1.05 mg/kg). […] The depth of anesthesia was monitored and adjusted if the animal responded to pinching of its paw or if the respiration rate was greater than 100 breaths/minute. […]

T1 sequence (P20309 whole entry): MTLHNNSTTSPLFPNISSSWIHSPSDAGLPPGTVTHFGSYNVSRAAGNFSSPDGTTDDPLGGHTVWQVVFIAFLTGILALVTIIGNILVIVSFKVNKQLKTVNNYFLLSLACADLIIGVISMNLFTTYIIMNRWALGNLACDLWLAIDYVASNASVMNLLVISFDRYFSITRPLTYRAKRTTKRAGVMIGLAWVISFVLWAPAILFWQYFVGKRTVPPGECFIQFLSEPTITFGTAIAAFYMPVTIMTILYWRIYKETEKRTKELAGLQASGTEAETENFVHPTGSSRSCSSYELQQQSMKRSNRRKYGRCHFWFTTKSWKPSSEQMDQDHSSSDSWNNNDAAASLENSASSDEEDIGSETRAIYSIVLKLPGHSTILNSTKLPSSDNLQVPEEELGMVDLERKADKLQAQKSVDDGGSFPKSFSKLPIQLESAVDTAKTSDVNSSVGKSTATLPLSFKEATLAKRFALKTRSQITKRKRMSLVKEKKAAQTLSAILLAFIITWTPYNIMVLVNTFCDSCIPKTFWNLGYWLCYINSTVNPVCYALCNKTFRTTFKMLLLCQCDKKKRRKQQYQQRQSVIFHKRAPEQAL

## CN(CCN1CCC(OC(=O)Nc2ccccc2-c2ccccc2)CC1)C(=O)c1ccc(CN2CCC(C(N)=O)CC2)cc1 [Example 1, Biphenyl-2-ylcarbamic Acid 1-(2-{[4-(4-Carbamoylpiperidin-1-ylmethyl)benzoyl]methylamino}ethyl)piperidin-4-yl Ester]
hM3 receptor
  Ki: < 5 nM
[1]
  PD2(50) for ACh-induced bronchoconstriction: less than 200 μg/mL
